Values joined by “and” are separate entries in the source; they are usually repeats but may differ in a detail not shown here. Identical values can stand only once. Counter-ions that a name gives are not always drawn.
Tested on: allergic rhinitis of BALB/c mice
Assay: OVA-induced allergic rhinitis in BALB/c mice, sneeze number
Format: in vivo
Conditions: for Sneeze number, individual mouse: within 15 min after administration, mice No. 1-4, hydrochloride
Description: 1. Experimental objective: to study the effect of the nasal balm of the disclosure on the allergic rhinitis of BALB/c mice.
2 mg of OVA powder was weighed, dissolved with physiologic saline solution. The final volume was calibrated accurately to 14 mL. 3.5 mL of the OVA solution was pipetted into a 5 mL Eppendorf tube, followed by the addition of 0.5 mL of uniform aluminum hydroxide gel, and then the OVA solution was dropwise added. The mixture was shaken for 30 min, and then 0.2 mL of the resulting solution was injected to each mouse to induce the sensitization.
2 mg of OVA powder was weighed, dissolved with physiologic saline solution. The final volume was calibrated accurately to 14 mL.
The mice were quarantined, adaptively fed, and divided into four groups: normal group, model group, positive control group and test group. Each group had 4 mice labeled as No. 1, No. 2, No. 3 and No. 4, respectively. The rest two mice were as backup.
The model group, positive control group and test group were administered with OVA solution through abdominal cavity to induce sensitization. Each mouse was administered with 0.2 mL of OVA solution containing 25 μg of OVA and 1 mg of aluminum hydroxide. Normal group as a control was injected with physiological saline solution at a dosage of 0.2 mL per mouse, where the first injection was labeled as D0, and the second injection and the third injection were performed on D7 and D14, respectively.
After induction, the drugs were administrated to initiate sensitization. The test product was smeared on the noses of the mice in normal group 6 times each day. After application of the test product each day, 20 μL of physiological saline solution was dripped into the nasal cavity of the mice in normal group as a control, at a dosage of 10 μL per nostril. The physiological saline solution was smeared on the nose of the mice in model group 6 times each day. 5 μL of Levocabastine was dripped into the nasal cavity of the mice in positive control group 2 times each day, at a dosage of 2.5 μL per nostril. The test product was smeared on the noses of the mice in test group 6 times each day. After administration of the drugs each day, 20 μL of the OVA solution for sensitization was dripped into the nasal cavity of the mice in model group, positive control group and test group, respectively, at a dosage of 10 μL per nostril.
Daily administration was continued for 10 days from D20-D30. On D23, D27 and D30 (that is, the 3rd day, 7th day and 10th day after administration), the number of times mice sneezed in each group within 15 min after administration was counted.
Unpaired two-tailed t-test was used to analyze data for each group.

SMILES: C[C@@H]1CN([C@H]2CC[C@](C#N)(c3ccc(F)cc3)CC2)CC[C@]1(C(=O)O)c1ccccc1 [Levocabastine, Levocabastine hydrochloride]
- Sneeze number compared with the model group (3rd day of administration): decreased significantly
- Sneeze number compared with the model group (7th day of administration): no significant difference
- Sneeze number compared with the model group (10th day of administration): no significant difference
- Sneeze number, individual mouse (D23 (3rd day of administration)): 7 and 15 and 8 and 11
- Sneeze number of mice, statistical data (D23, group of 4 mice, model group 22.75 ± 1.50): 10.25 ± 3.59
- Sneeze number, individual mouse (D27 (7th day of administration)): 75 and 45 and 44 and 22
- Sneeze number of mice, statistical data (D27, group of 4 mice, model group 69.75 ± 17.08): 46.50 ± 21.76
- Sneeze number, individual mouse (D30 (10th day of administration)): 124 and 108 and 46 and 110
- Sneeze number of mice, statistical data (D30, group of 4 mice, model group 100.25 ± 14.13): 97.00 ± 34.74
